One assay has as its system MPTP-treated mice. Nature of the assay: MPTP mouse model. Type of assay: in vivo. Conditions: SNc, western blot, FIG. 17B. On the procedure:
A) Schematic for experiments in panels B-K. C57BL/6 mice (8 week-old) received 4 i.p. injections of MPTP (20 mg/kg at 2 hr intervals) or vehicle on day 0. […] N=6. […] Quantification of TH protein normalized to control (C,D). N=6. E-G) Example of immunostaining of TH in SNc and striatum (E, scale bars, 500 μm SNc, 1 mm striatum). Quantification of TH-positive neurons in SNc (F) and TH intensity in the striatum (G). N=6. H,I) Dopamine (DA) content in striatum and SnC. N=6. J) Percentage of TH-positive neurons that were positive for TUNEL staining. N=6. K) Behavioral response of mice in rotarod test. Data are duration that mice remained on an accelerated rolling rod normalized to mice at day 0. N=8. Data are examples and mean±SEM. […] Statistical analysis at day 7 and day 14 was Mann-Whitney. In the figure, *p<0.05, **p<0.01.
FIG. 10. […] A) Schematic of experiments in panels B-F. C57BL/6 mice (8 week-old) received 4 i.p. injections of MPTP (20 mg/kg at 2 hr intervals) or vehicle on day 0. […] B,C) Pyruvate and ATP levels in mouse SNc. N=6. D) Mitochondrial DNA (mDNA, 16S and ND1) relative to nuclear DNA (nDNA, intron β-globin) by quantitative PCR of mouse striatum and SNc. N=3. E,F) VDAC (E) and PHB1 (F) protein levels in striatum and SNc assayed by western blot and normalized to control. N=6.
FIG. 12. […] A) Schematic for experiments in panels B-J. C57BL/6 mice (8 week-old) received 4 i.p. injections of MPTP (20 mg/kg at 2 hr intervals) or vehicle on day 0. […] B) Example of TH immunostaining in the SNc on days 7 and 14. Scale bar, 500 μm. C-F) Measurement of DOPAC in mouse striatum (C) and SNc (D) and measurement of HVA in striatum (E) and SNc (F). (N=6). G) Example of TH and TUNEL co-staining in the SNc. TH (green), TUNEL (red), and DAPI (nuclei, blue). Scale bar, 25 μm. Quantitative data are in FIG. 2J. H) Left panels are Nissl staining of neurons in the striatum. Samples were obtained 7 days after MPTP injection. Right panels show the quantification. […] Scale bar, 400 μm. N=3 per group. I,J) Behavioral response of mice in the pole test. (I) Time mice took to turn their heads from upward to downward. (J) Time mice took to climb down the pole. N=8.
MPTP was injected (i.p.) on one day at 20 mg/kg for four times at 2-hour intervals, as previously described (4). […] At the end of the drug or saline treatment, behavioral tests including rotarod test and pole test were carried out before the animals were sacrificed.
The rotarod test was carried out using an automated rotarod (E103, UGO BASILE). At a fixed speed of 15 revolutions per minute (rpm), mice were pre-trained for two consecutive days until they were able to remain on the rod for more than 60 seconds. […] The latency to fall was recorded for a maximum recording time of 600 seconds. The behavior was monitored by a video camera.
This test was carried out by leaving a pole in the cage where the mice were housed. The pole test was performed on the 14th day after MPTP injection as previously described (9). The mouse was placed in a head-upward position on top of a vertical pole (diameter 8 mm, height 55 cm) with a ball (diameter 2.5 cm) on the head of the pole. The pole was wrapped with the nylon gauze to prevent the mouse from slipping down. Each mouse was trained twice before testing. The time that the mouse took to turn his head from upward to downward (Time: Turn) and the time the mouse took to reach the floor with his forepaws (Time: Locomotion Activity) were recorded. Each mouse was tested three times with 5 min. intervals, and the average time was quantified.

Assay [1] deals with M17 human neuroblastoma cells. Nature of the assay: Glycolysis and mitochondrial function in M17 cells. Conditions: in vitro, 10 μM, 24 hr (ECAR).
Procedure: Cells were incubated with mild hypoxia for 12 hr before study. Cells were cultured in a sealed chamber (Stemcell Technologies Vancouver, Canada) that was flushed with a humidified gas mixture composed of 5% 02, 5% carbon dioxide (CO2), and 90% nitrogen (N2) for 12 hr. […] Assays of ATP, pyruvate, and citrate synthase activities (CS) were performed according to the manufacturer's instructions.
A Seahorse XV analyzer (XF^e-24, Seahorse Bioscience, Billerica, Mass., USA) was used to measure the oxygen consumption rate (OCR) and the extracellular acidification rate (ECAR) as previously described (18). The M17 cells and iPS cells were seeded in XF^e 24-well plates (Seahorse Bioscience), while the plates used for iPS cells were poly-D-lysine pre-coated. Assay medium was prepared by supplementing Seahorse XF^eBaseMedium minimal DMEM (Seahorse Bioscience) with 2 mM L-glutamine for a Glycolysis Stress Test assay or 2 mM L-glutamine, 1 mM pyruvate and 10 mM glucose for a Mito Stress Test assay (Sigma). pH was adjusted to 7.4 at 37° C. Probes (Seahorse Bioscience) were hydrated in the calibrant (Seahorse Bioscience) in a non-CO2 incubator at 37° C. overnight. Cells were washed twice with assay medium and kept in a non-CO2 incubator at 37° C. for 1 hr before analysis. Glucose, oligomycin and 2-deoxy-glucose (2-DG) were pre-loaded in the probe plate for Glycolysis Stress Test, while oligomycin, FCCP and a mixture of rotenone and antimycin A were used for Mito Stress Test.
Citrate synthase (CS) activity, LDH assay and pyruvate level were detected using commercial kits according to the manufacturer's directions. ATP content in animal tissues and M17 cells were detected with the ATP assay kit following the manufacturer's directions.
Assay [2] has as its system Hela cell stably expressed FUS-GFP. Nature of the assay: Hela cells stably expressing FUS-GFP. The class given is cell-based. From the text:
FIG. 19. Relative ATP levels in Hela cells expressing FUS-GTP after treatment with alfazosin (AZ) and rotenone (Rot).
FIG. 20. Expression levels of FUS-GTP in cells treated with alfazosin (AZ), rotenone (Rot), and 17AAG, an inhibitor of the ATPase of HSP90.
FIG. 21. Fluorescence recovery of FUS-GTP in Hela cells after photobleaching.
We studied Hela cell stably expressed FUS-GFP to determine whether alfazosin (AZ) affected the molecule biology of FUS. (See FIG. 19). FUS forms phase-separated aggregates in cells and is commonly used to test agents that enhance or inhibit aggregate formation. The cells were maintained under mild hypoxic condition (5% oxygen), in which mitochondria function at their highest level. Alfazosin (AZ) was added in the culture medium with or without rotenone, a mitochondrial respiration inhibitor. 60 hours later, we measured the ATP level. The control (without AZ) is set as 1 (N=3).
We quantified FUS-GFP protein levels using actin as a protein loading control. (See FIG. 20). Rotenone (Rot) is a mitochondrial respiration inhibitor, 17AAG is an inhibitor of the ATPase of HSP90. The control level of FUS/actin is set as 1, and relative ratio of other treatment is compared.
(See FIG. 21). After 30 seconds photobleaching, the recovery of GFP signal was measured and plotted. N=10.

In assay [3] the test system is Hek293T cells expressing APPswe-GFP. In words: Hek293T cells transfected with APPswe-GFP. The note with it: 24 hours. The class given is cell-based. From the text: FIG. 22. Expression of amyloid precursor protein (APP) Swedish mutation tagged with GFP (APPswe-GFP) in transfected Hek293T cells. Left panel—expression of GFP in cells treated with alfazosin (AZ). Right panel—relative intensity versus treatment with increasing concentrations of AZ.
FIG. 23. Western blot quantification of APPswe-GFP in transfected Hek293T cells treated with increasing concentration of alfazosin (AZ).
We also studied Hek293T cells that were transfected with the amyloid precursor protein (APP) Swedish mutation tagged with GFP (APPswe-GFP). (See FIG. 22). After transfection, AZ (1-10 μM) was added for 24 hours. The GFP intensity without AZ treatment was set as 1.
AZ (1-100 μM) was added for 24 hours to Hek293T cells expressing APPswe-GFP. Then, cell lysates were collected for protein quantification by western blot. (See FIG. 23). The APP/actin ratio was plotted.

As for `COc1cc2nc(N3CCN(C(=O)C4COc5ccccc5O4)CC3)nc(N)c2cc1OC` (stereo not drawn) [doxazosin], the “tyrosine hydroxylase levels in MPTP-treated mice” value with MPTP-treated mice is recorded as “increased”. The glycolysis result in assay [1] is reported as “increased”.
Take `COc1cc2nc(N(C)CCCNC(=O)C3CCCO3)nc(N)c2cc1OC` (stereo not drawn) [alfuzosin]: in the assay with MPTP-treated mice, the “tyrosine hydroxylase levels in MPTP-treated mice” value is reported as “increased”. The “ATP increase with rotenone” value in assay [2] (5% oxygen, 60 hours, with rotenone) is on record as “abolished”. Also, the ATP level result in assay [2] (5% oxygen, 60 hours, without rotenone) was “increases”. Further, the FUS-GFP protein levels entry in assay [2] (FUS/actin, western) is “reduced”. Besides, the “aggregation of APPswe-GFP (GFP intensity)” value in assay [3] (AZ 1-10 μM) is listed as “decrease”. In addition, in assay [3] (AZ 1-100 μM), the “APPswe-GFP levels (APP/actin ratio, western blot)” value was “reduces”. Besides, the glycolysis entry in assay [1] was “increased”.

The values are drawn from US20220000871A1, “METHODS AND COMPOSITIONS FOR TREATING NEURODEGENERATIVE DISEASES USING MODULATORS OF PHOSPHOGLYCERATE KINASE 1 (PGK1) ACTIVITY” (UNIVERSITY OF IOWA RESEARCH FOUNDATION, priority 2019, published 2022).
